Assay results: US20130172246A1, “INSULIN GLARGINE VERSUS METFORMIN FOR THE FIRST-LINE TREATMENT OF EARLY TYPE-2 DIABETES” (priority 2011, published 2013)

System: type 2 diabetes patients
Experiment: Continuous glucose monitoring (CGM) with standardized test meal, clinical trial insulin glargine vs. metformin
Format: in vivo, human
Set-up: AUC 2hpp value after a test meal - Visit 1 / AUC 2hpp value after a test meal - Visit 8 / AUC day 2 - visit 8 / AUC day 2 - change / AUC day 3 - visit 8 / AUC day 3 - change / AUC 2 h incremental after TM - visit 8 / AUC 2 h incremental after TM - change / AUC between 5.6 and fasting on day 2 - visit 8 / AUC between 5.6 and fasting on day 2 - change / AUC between 5.6 and fasting on day 3 - visit 8 / AUC between 5.6 and fasting on day 3 - change / AUC 2 h after test meal - visit 8 / AUC 2 h after test meal change: unit not given beside the values
Conditions: for Glycemic load - visit 8: (FG+Peak+2hppG)·⅓; for Glycemic load - visit 8 / MAGE - visit 8 / AUC day 2 - change / AUC day 2 - visit 8 / AUC day 3 - change / AUC day 3 - visit 8 / AUC between 5.6 and fasting on day 2 - change / AUC between 5.6 and fasting on day 3 - change / AUC 2 h after test meal change / AUC 2 h incremental after TM - change / Glycemic load - change / MAGE - change / AUC 2 h after test meal - visit 8 / AUC between 5.6 and fasting on day 2 - visit 8 / AUC between 5.6 and fasting on day 3 - visit 8 / AUC 2 h incremental after TM - visit 8: per protocol; for Glycemic load - visit 8 / MAGE - visit 8 / AUC day 2 - visit 8 / AUC day 3 - visit 8 / AUC 2 h after test meal - visit 8 / AUC between 5.6 and fasting on day 2 - visit 8 / AUC between 5.6 and fasting on day 3 - visit 8 / AUC 2 h incremental after TM - visit 8: week 36; for Glycemic load - visit 8 / AUC 2hpp value after a test meal - Visit 1 / MAGE - visit 8 / AUC 2 h after test meal change / AUC 2 h incremental after TM - change / Glycemic load - change / MAGE - change / AUC 2 h incremental after TM - visit 8 / AUC 2hpp value after a test meal - Visit 8: mean (SD); for fall of the total area under the curve (AUC-IG): CGM, p=0.04; for fall of the total area under the curve (AUC-IG) / decrease in the interstitial glucose level during CGM (Δ): start to end of study; for AUC 2hpp value after a test meal - Visit 1: baseline (week 0) before treatment; for MAGE - visit 8: mean amplitude of glycemic excursions; for AUC day 2 - change / AUC day 2 - visit 8: CGM day 2; for AUC day 2 - change / AUC day 3 - change / AUC between 5.6 and fasting on day 2 - change / AUC between 5.6 and fasting on day 3 - change / AUC 2 h after test meal change / AUC 2 h incremental after TM - change / Glycemic load - change / MAGE - change: change visit 1 to visit 8; for AUC day 2 - change / AUC day 2 - visit 8 / AUC day 3 - change / AUC day 3 - visit 8 / AUC between 5.6 and fasting on day 2 - change / AUC between 5.6 and fasting on day 3 - change / AUC 2 h after test meal - visit 8 / AUC between 5.6 and fasting on day 2 - visit 8 / AUC between 5.6 and fasting on day 3 - visit 8: mean; for AUC day 3 - change / AUC day 3 - visit 8: CGM day 3; for decrease in the interstitial glucose level during CGM (Δ): GLA vs. MET p=0.02; for AUC 2hpp value after a test meal - Visit 8: week 36 of treatment
Protocol: The primary target variable determined was the Area Under the Curve (AUC) in mmol/L/time in subcutaneous abdominal fat after a test meal (TM) in a 2-hour course, which was determined by continuous blood glucose monitoring. The test meal was administered on the 2nd day of the CGM as breakfast. • AUC [mmol/L/time] 2 h pp
CGMS: The system used for continuous glucose monitoring is the CGMS from Medtronic, CGMS® System Gold™ monitor/MiniMed glucose subcutaneous sensor. The system is authorized for continuous glucose monitoring over a period of 72 h. The measurement sensor is inserted into subcutaneous fat tissue with the aid of an applicator. The entire sensor is stuck on the skin using a plaster. This is followed by the calibration of the device for approximately 5 hours, during which the subcutaneous levels are synchronized with the capillary blood glucose levels. Over the course of 72 h, further calibrations are required, as recommended by the manufacturer. The measured data of the sensor are transmitted by means of radio frequency to the CGMS® System Gold™ monitor, which is worn on the belt for example. After completion of the measurement period, the sensor is removed and the data of the monitor are evaluated on the computer using the software. For the evaluation, only the measured data of the first 48 hours are used, since the accuracy of measurement decreases over the course of the third day.
Test meal: On the morning of the 2nd day of the CGM, there is a standardized test meal in the trial center. This test meal (TM) consists of 95 g of whole-wheat bread, 20 g of margarine, 25 g of fruit preserves, 25 g of cheese, 200 ml of orange juice, 200 ml of milk mix with banana, strawberry or cocoa with a total of 560 Kcal. Blood is taken from the patient prior to the TM (after night-time fasting period of at least 8 hours). Subsequently, the TM should be eaten within 15 min. From the 1st bite, the time is measured, and after 2 h have elapsed, a 2nd blood collection is performed. During the TM and during the two hours thereafter, the patient should move as little as possible so as not to falsify the monitoring.
The primary target variable is the AUC (BG) TM of the glucose concentration in subcutaneous abdominal fat after a standardized test meal over a period of 2 hours. The AUC is calculated accordina to the trapezoidal rule.
• Mean HbA1c, • Glycemic variability: • Standard deviation (SD) of the mean glucose concentration over 24 h (day 2), • MAGE—mean amplitude of glycemic excursion calculated as the mean from the glucose increases>1 SD of the mean glucose concentration over the course of 24 h • Glycemic load calculated by (FG+Peak+2hppG)·⅓ • Mean of C-peptide and intact proinsulin (fasting and 2 h pp) • Mean free fatty acids • Biomarkers of subclinical inflammation (hsCRP, PAI-1, leukocyte count fasting and 2 h postprandial) • Microalbuminuria (albumin/creatinine ratio) • Endothelial function at ball of thumb using laser Doppler (O2C) • Hypoglycemic intervals (time<3 mmol glucose) during CGM over 48 hours (day 2+3 after TM)
In the study in the previous examples, 75 patients (45 men, 30 women, mean age: 60.7±9.2 years) were examined, whose first diagnosis of type 2 diabetes dated back to less than 5 years and whose HbA1c level was between 6.5 and 8.5%. The patients were treated with either metformin (MET, 1000 mg b.i.d. (n=3)) or insulin glargine (GLA) q.d. just before bedtime (n=3). The insulin dose was adjusted for a target plasma glucose concentration (FPG) of ≦5.6 mmol/L according to a standardized titration algorithm. At the start and end of the study, the HbA1c level and the plasma glucose, proinsulin and C-peptide concentrations were determined. […] All the patients received a standardized test meal on the second day of the continuous glucose monitoring for comparison of the interindividual postprandial (pp) glucose excursions.

Insulin glargine
Glycemic load - visit 8: 8.8 (1.6)
fall of the total area under the curve (AUC-IG): 671.2 ± 507.9 mmol·min/L
postprandial plasma glucose two hours after a test meal and differences in AUC-IG after the test meal (GLA vs. MET): showed no significance
AUC 2hpp value after a test meal - Visit 1: 287.38 (67.235)
MAGE - visit 8: 8.0 (2.3)
AUC day 2 - change: −671.2
AUC day 2 - visit 8: 2000.3
AUC day 3 - change: −628.2
AUC day 3 - visit 8: 2045.0
AUC between 5.6 and fasting on day 2 - change: −565.4
AUC between 5.6 and fasting on day 3 - change: −571.5
AUC 2 h after test meal change: −63.0 (5.4)
AUC 2 h incremental after TM - change: −5.7 (40.4)
Glycemic load - change: −2.7 (1.9)
MAGE - change: −0.4 (3.4)
AUC 2 h after test meal - visit 8: 224.4
AUC between 5.6 and fasting on day 2 - visit 8: −58.5
AUC between 5.6 and fasting on day 3 - visit 8: −11.6
AUC 2 h incremental after TM - visit 8: 68.3 (24.6)
decrease in the interstitial glucose level during CGM (Δ): 2.4 ± 1.8 mmol/L
AUC 2hpp value after a test meal - Visit 8: 224.38 (40.048)

CN(C)C(=N)N=C(N)N [Metformin]
Glycemic load - visit 8: 8.5 (2.1)
fall of the total area under the curve (AUC-IG): 416.1 ± 537.6 mmol·min/L
AUC 2hpp value after a test meal - Visit 1: 256.50 (72.837)
MAGE - visit 8: 6.3 (2.4)
AUC day 2 - change: −416.1
AUC day 2 - visit 8: 1978.5
AUC day 3 - change: −411.5
AUC day 3 - visit 8: 1972.5
AUC between 5.6 and fasting on day 2 - change: −356.5
AUC between 5.6 and fasting on day 3 - change: −317.4
AUC 2 h after test meal change: −42.9 (73.1)
AUC 2 h incremental after TM - change: −5.8 (31.8)
Glycemic load - change: −1.7 (2.7)
MAGE - change: −0.8 (3.3)
AUC 2 h after test meal - visit 8: 213.6
AUC between 5.6 and fasting on day 2 - visit 8: −15.4
AUC between 5.6 and fasting on day 3 - visit 8: 41.1
AUC 2 h incremental after TM - visit 8: 49.6 (25.0)
decrease in the interstitial glucose level during CGM (Δ): 1.4 ± 1.8 mmol/L
AUC 2hpp value after a test meal - Visit 8: 213.61 (52.844)
